The structures appear in SMILES notation.

The target in experiment [1] is T1, Ephrin type-A receptor 3 (Homo sapiens) (UniProt P29320).
T1 sequence (whole entry): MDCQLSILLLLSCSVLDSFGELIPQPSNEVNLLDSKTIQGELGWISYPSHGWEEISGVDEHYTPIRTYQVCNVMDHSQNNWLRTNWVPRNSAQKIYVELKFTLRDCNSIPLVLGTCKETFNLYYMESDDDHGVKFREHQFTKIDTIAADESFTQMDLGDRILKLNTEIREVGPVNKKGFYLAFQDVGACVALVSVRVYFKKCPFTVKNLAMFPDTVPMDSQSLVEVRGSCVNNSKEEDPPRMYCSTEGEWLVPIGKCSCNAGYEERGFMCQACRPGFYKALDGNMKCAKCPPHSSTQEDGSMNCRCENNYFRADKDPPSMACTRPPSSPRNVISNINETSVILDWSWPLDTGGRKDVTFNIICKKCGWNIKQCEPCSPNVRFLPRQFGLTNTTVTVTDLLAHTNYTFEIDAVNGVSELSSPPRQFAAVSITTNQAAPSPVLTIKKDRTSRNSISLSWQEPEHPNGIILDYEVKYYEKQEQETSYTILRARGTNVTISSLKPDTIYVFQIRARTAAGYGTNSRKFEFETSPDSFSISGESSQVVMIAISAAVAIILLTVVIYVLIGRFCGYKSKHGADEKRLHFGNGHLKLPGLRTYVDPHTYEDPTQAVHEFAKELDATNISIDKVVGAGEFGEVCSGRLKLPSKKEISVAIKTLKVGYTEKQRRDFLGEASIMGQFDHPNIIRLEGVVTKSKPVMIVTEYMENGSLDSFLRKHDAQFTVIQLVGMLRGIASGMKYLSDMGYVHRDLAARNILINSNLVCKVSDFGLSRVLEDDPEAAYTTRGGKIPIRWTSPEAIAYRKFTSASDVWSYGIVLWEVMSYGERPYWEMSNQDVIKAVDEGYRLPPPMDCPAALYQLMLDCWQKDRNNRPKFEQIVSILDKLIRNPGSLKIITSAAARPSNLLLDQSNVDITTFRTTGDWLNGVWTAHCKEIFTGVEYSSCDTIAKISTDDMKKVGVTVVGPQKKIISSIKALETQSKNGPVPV
Put plainly: Selectivity interaction (LanthaScreen Eu Kinase Binding Assay) EUB0001632a EPHA3. As to conditions: at 10 µM. (TR-FRET usually uses a lanthanide donor and a delayed reading to cut background.)

The target of experiment [2] is Serine/threonine-protein kinase SMG1 (Homo sapiens) (UniProt Q96Q15). Put plainly: Selectivity interaction (Kinase panel (KiNativ target engagement assay in Jurkat cells)) EUB0001635a SMG1. Format: cell-based. The conditions noted are these: Selectivity number of off-targets 0.0, Selectivity number of targets 233.0, Source Knowledge https://www.sciencedirect.com/science/article/pii/S2451945619300674?via%3Dihub, at 1 µM.
Sequence of Serine/threonine-protein kinase SMG1 (Homo sapiens) (Q96Q15 whole entry): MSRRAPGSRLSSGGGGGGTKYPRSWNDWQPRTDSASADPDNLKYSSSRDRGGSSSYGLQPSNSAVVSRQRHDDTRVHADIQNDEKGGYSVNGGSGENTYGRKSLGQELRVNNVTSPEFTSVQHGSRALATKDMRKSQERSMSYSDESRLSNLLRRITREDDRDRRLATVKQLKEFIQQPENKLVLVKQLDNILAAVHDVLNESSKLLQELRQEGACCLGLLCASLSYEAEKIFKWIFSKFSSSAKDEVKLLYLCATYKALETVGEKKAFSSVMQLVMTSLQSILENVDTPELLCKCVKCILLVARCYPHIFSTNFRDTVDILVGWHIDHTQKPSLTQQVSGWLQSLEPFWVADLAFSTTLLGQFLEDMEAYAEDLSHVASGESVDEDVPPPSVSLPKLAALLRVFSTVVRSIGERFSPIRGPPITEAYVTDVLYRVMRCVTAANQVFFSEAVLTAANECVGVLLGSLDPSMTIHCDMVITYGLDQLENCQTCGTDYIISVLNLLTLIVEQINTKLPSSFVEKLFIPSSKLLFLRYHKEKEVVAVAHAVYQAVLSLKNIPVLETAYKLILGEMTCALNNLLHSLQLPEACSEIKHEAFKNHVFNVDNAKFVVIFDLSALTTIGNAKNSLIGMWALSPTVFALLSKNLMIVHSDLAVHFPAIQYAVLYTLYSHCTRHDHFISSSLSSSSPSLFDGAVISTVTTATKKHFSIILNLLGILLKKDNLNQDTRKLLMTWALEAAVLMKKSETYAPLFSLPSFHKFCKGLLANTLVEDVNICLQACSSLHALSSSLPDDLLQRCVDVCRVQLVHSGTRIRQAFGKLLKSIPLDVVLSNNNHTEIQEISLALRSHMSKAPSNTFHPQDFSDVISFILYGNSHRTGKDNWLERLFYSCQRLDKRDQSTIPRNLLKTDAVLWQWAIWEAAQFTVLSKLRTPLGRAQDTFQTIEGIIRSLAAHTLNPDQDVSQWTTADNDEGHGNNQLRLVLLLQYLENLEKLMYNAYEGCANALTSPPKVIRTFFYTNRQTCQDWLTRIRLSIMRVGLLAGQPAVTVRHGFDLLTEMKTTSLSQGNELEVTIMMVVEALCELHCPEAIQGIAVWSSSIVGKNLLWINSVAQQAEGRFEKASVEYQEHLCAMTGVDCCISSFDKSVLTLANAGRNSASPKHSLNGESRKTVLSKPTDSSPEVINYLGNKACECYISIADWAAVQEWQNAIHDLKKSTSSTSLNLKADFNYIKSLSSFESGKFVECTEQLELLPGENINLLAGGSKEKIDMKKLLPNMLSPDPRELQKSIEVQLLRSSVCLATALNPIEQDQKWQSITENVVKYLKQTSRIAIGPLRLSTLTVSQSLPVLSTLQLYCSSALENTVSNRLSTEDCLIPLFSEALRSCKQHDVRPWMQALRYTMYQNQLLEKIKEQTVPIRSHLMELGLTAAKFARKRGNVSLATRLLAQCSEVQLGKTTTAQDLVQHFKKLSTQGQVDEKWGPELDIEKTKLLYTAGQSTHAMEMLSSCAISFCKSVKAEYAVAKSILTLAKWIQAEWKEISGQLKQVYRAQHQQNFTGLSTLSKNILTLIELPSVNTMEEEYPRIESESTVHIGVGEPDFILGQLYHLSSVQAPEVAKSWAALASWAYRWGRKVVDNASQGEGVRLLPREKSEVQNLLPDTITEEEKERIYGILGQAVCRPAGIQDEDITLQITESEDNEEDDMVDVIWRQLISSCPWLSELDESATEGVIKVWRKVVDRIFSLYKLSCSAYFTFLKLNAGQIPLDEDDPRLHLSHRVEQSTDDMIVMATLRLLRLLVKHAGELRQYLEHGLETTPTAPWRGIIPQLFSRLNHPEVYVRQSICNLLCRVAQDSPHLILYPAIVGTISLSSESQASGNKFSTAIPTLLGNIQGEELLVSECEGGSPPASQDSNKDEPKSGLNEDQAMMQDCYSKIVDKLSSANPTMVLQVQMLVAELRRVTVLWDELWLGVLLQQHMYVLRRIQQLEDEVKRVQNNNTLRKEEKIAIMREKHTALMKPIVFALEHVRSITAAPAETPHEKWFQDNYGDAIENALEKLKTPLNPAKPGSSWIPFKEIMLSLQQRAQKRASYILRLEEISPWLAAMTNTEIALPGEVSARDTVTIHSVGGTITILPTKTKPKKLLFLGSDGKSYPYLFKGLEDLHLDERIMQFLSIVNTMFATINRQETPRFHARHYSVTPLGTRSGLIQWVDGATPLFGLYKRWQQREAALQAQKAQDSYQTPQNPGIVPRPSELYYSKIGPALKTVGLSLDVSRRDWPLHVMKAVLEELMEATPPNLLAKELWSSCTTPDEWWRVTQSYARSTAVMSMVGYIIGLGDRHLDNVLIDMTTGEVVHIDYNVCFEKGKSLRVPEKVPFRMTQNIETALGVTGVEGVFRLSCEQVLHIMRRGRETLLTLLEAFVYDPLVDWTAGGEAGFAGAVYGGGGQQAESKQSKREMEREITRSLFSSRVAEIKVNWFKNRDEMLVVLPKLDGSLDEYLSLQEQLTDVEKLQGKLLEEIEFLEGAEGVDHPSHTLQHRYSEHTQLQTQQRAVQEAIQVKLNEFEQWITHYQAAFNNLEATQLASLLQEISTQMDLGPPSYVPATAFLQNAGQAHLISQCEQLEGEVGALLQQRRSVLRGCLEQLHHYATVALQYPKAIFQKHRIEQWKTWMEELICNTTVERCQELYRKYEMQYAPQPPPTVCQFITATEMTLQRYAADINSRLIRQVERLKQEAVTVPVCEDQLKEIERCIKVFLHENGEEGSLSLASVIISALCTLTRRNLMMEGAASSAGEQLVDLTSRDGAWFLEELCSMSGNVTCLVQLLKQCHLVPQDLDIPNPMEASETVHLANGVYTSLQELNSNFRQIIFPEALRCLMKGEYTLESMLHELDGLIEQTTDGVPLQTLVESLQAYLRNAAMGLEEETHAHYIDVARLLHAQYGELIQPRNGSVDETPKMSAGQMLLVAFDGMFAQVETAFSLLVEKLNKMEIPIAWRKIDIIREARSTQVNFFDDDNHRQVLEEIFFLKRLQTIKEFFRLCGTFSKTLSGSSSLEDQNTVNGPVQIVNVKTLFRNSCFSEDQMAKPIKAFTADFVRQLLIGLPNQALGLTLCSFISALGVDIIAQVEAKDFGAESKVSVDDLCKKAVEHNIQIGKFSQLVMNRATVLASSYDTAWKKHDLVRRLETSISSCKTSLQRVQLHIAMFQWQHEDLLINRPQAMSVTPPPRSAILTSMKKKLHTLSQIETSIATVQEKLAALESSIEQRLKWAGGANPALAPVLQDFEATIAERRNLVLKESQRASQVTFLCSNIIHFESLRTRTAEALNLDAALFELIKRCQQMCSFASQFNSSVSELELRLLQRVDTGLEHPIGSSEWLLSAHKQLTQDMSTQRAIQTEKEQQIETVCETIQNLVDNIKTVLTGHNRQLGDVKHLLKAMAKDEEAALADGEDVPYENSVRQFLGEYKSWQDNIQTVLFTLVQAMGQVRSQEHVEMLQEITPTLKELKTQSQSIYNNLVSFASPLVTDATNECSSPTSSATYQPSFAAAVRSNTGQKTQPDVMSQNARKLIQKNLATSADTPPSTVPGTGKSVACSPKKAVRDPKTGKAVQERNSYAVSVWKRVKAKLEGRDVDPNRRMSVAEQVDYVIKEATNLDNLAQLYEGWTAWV

Experiment [3] concerns the target Phosphatidylinositol 4-phosphate 3-kinase C2 domain-containing subunit beta (Homo sapiens) (UniProt O00750). Put plainly: Selectivity interaction (Kinase panel (KiNativ target engagement assay in Jurkat cells)) EUB0001635a PIK3C2B. The conditions noted are these: Selectivity number of off-targets 0.0, Selectivity number of targets 233.0, Source Knowledge https://www.sciencedirect.com/science/article/pii/S2451945619300674?via%3Dihub, at 1 µM. Format: cell-based.

The target in experiment [4] is Serine/threonine-protein kinase 24 (Homo sapiens) (UniProt Q9Y6E0). Put plainly: Selectivity interaction (Ambit KINOMEscan and KiNATiv profiling in Jurkat cells) EUB0000090b STK24. Format: cell-based. As to conditions: at 1 µM.
Sequence of Serine/threonine-protein kinase 24 (Homo sapiens) (Q9Y6E0 whole entry, looked up): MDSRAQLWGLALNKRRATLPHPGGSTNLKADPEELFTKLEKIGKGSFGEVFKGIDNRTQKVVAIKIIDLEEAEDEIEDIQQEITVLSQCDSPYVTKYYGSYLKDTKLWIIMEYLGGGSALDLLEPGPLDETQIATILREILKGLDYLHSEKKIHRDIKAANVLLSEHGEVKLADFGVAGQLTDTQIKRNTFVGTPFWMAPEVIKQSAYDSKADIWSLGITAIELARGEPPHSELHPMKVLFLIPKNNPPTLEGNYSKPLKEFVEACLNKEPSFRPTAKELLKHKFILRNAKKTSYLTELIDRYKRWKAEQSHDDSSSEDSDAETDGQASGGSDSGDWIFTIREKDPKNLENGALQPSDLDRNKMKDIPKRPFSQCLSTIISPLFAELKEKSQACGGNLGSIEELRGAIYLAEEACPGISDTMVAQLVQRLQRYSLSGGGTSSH
In experiment [5] the target is T2, Dual specificity protein kinase TTK (Homo sapiens) (UniProt P33981).
T2 sequence (whole entry): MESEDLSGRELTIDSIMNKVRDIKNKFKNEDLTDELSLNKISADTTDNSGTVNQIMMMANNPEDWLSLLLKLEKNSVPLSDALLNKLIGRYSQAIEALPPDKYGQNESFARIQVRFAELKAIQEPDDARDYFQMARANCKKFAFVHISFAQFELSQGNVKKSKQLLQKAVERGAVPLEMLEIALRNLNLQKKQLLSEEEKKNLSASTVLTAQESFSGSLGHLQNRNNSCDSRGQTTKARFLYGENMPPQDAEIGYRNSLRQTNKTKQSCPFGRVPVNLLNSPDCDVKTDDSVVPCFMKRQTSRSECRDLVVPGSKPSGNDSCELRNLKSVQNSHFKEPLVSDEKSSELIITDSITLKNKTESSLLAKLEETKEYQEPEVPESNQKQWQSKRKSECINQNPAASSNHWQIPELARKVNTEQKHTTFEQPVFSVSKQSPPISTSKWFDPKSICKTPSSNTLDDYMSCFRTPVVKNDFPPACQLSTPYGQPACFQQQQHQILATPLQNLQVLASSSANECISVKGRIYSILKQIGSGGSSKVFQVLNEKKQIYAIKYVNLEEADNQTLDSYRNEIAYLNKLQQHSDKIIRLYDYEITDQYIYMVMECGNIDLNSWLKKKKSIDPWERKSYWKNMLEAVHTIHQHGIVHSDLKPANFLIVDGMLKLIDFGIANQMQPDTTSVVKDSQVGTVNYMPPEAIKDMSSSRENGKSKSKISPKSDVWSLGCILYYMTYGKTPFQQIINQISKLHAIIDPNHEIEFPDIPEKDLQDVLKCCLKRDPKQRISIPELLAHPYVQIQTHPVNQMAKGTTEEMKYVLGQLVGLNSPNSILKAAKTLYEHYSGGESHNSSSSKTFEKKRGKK
Put plainly: Selectivity interaction (Kinase panel (DSF assay)) EUB0001558a TTK. (Differential scanning fluorimetry follows unfolding on heating by fluorescence.)

For experiment [6], the target named is T3, Serine/threonine-protein kinase 17B (Homo sapiens) (UniProt O94768).
T3 sequence (whole entry): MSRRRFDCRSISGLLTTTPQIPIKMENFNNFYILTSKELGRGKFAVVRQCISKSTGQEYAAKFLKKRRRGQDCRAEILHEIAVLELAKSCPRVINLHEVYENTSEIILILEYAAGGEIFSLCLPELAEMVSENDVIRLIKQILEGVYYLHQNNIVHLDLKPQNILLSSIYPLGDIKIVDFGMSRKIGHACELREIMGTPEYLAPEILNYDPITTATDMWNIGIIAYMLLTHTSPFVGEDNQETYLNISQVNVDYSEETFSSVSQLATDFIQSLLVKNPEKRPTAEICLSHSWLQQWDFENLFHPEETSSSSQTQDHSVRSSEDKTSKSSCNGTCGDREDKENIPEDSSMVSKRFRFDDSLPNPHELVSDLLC
Kind of experiment: Selectivity interaction (KinomeScan (DiscoverX)) EUB0001619a STK17B. The conditions noted are these: at 1 µM.

For experiment [7], the target named is Cyclin-dependent kinase 9 (Homo sapiens, UniProt P50750). Kind of experiment: Selectivity interaction (KinomeScan (DiscoverX)) EUB0000092b CDK9. The conditions noted are these: at 10 µM.
Sequence of Cyclin-dependent kinase 9 (P50750 whole entry): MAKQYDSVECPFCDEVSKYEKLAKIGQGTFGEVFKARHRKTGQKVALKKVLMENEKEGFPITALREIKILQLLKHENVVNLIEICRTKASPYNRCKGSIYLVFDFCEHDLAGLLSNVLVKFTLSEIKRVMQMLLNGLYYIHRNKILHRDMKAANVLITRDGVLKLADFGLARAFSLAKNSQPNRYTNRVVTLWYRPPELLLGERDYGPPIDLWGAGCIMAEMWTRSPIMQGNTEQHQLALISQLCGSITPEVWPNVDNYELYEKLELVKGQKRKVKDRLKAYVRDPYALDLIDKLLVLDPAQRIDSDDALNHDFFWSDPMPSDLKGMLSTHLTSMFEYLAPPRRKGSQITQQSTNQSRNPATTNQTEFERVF

On to `Cn1cc(-n2cnc3c(NCc4nc5cc(Cl)c(Cl)cc5[nH]4)nc(N4CCOCC4)nc32)cn1`, for which the % of inhibition in experiment [1] was -19.5%.
Take `C=CC(=O)Nc1ccc(C(=O)Nc2[nH]nc3c2CN(C(=O)N[C@H](CN(C)C)c2ccccc2)C3(C)C)cc1`: the % of engagement in experiment [2] is -4.6%; in experiment [3], -18.6%.
With `CN(C)C/C=C/C(=O)Nc1ccc(C(=O)N2CCCC(Nc3ncc(Cl)c(-c4c[nH]c5ccccc45)n3)C2)cc1` (configuration not stated), the % of control in experiment [4] is 94%.
Take `CC(C)(O)[C@H](F)CN1Cc2cc(NC(=O)c3cnn4cccnc34)c(N3CCOCC3)cc2C1=O`: in experiment [5], the dTM is 0.3 K.
In turn, `N#Cc1cccc(-c2c[nH]c3ncnc(N4CCOCC4)c23)c1` yielded a % of control in experiment [6] of 100%.
As to `CCC(=O)N1CCN(c2ccc(-n3c(=O)ccc4cnc5ccc(-c6cnc7ccccc7c6)cc5c43)cc2C(F)(F)F)CC1`, the % of control in experiment [7] was 94%.

These data come from ChEMBL document CHEMBL5465560, “Selectivity Literature for EUbOPEN Chemogenomic Library” (2024).
